Data taken from patent publication US9546158B2, “2,5-substituted pyrimidines” (Grünenthal GmbH, priority 2014, dated 2017).

What was measured:
human PDE4B1 [1] = molecular target: T1, human PDE4B1 (Homo sapiens, UniProt Q07343); assay: TR-FRET assay using the LANCE Ultra cAMP kit to determine the activity of hPDE4B1; assay type: biochemical; details: test substrate concentration of 10 μM, read-out: Inhibition of PDE4B, Inhibition in %
T1 construct: host or cells: Sf9 cells
From the text: TR-FRET Assay Using the LANCE® Ultra cAMP Kit to Determine the Activity of hPDE4B1
The effects of the compounds on the activity of the human PDE4B1 was quantified by measuring the production of 5′AMP from cAMP using a human recombinant enzyme expressed in Sf9 cells and the LANCE® Ultra cAMP kit, a TR-FRET detection method from PerkinElmer. The human PDE4B1 enzyme was purchased from SignalChem Lifesciences (Catalog #P92-31BG, Lot #H296-2).
The test compound, reference compound or water (control) was mixed with the enzyme (0.96 U) in a reaction buffer containing 50 mM Tris-HCl, 50 mM MgCl2 and 5 mM DTT (pH 8.5). Thereafter, the reaction was initiated by addition of 500 nM cAMP (substrate) and the mixture was incubated for 30 minutes at room temperature. For control basal measurements, the enzyme was omitted from the reaction mixture. After 30 minutes, the reaction was stopped and diluted by a factor of 100 with the reaction buffer supplemented with 500 μM IBMX. The fluorescence donor (europium chelate-labeled cAMP) and the fluorescence acceptor (anti-cAMP antibody labeled with the ULight™ dye) were then added together with 500 μM IBMX to a 10 μl aliquot. After 60 minutes, the fluorescence transfer corresponding to the amount of residual cAMP was measured at λex=337 nm, λem=620 nm and λem=665 nm using a microplate reader (PHERAstar, BMG). The enzyme activity was determined by dividing the signal measured at 665 nm by that measured at 620 nm (ratio) multiplied by 10000. The results were expressed as percent inhibition of the control enzyme activity. IC50 values (IC50=concentration causing a half-maximal inhibition of control specific activity) were derived from dose response measurements with ten different concentrations (n=3; N=1-3).

human PDE4B1 [2] = molecular target: T1, human PDE4B1; assay: cAMP HTRF assay to determine the activity of hPDE4B1; assay type: biochemical; details: test substrate concentration of 1 μM, read-out: Inhibition of PDE4B, Inhibition in %
Procedure: cAMP HTRF® Assay to Determine the Activity of hPDE4B1
The inhibiting effect of the compounds on the enzyme activity of human PDE4B1 was measured by the quantification of 5′-adenosine monophosphate (5′-AMP), which is formed from 3′,5′-cyclic adenosine monophosphate (cAMP). Human recombinant enzyme, expressed in Sf9 cells, and the HTRF (homogeneous time-resolved fluorescence) detection method were used in the assay.
The test compound or water (control) was mixed with the human recombinant PDE4B1 enzyme (4.8 U) in a buffer consisting of 44.4 mM tris-HCl, 5.28 mM MgCl2, 2.64 mM DTT and 0.044% Tween 20 (pH 7.8). After adding the cAMP enzyme substrate (final concentration 40 nM), the mixture was incubated for 30 minutes at room temperature. Then a fluorescence acceptor (Dye2 marked with cAMP), a fluorescence donor (anti-cAMP antibody marked with a europium cryptate) and the non-specific phosphodiesterase inhibitor IBMX (3-isobutyl-1-methylxanthine; final concentration 1 mM) were added. After 60 minutes the fluorescence transfer, which correlates with the amount of remaining cAMP, was measured with a microplate reader (Rubystar, BMG) at λex=337 nm, λem=620 nm and λem=665 nm. The enzyme activity was calculated from the quotient formed from the measured signal at 665 nm and that at 620 nm. The result was expressed as the percentage inhibition of enzyme activity of the control (without PDE4 inhibitor). The enzyme was omitted for measurement of the basal control. IC50 values (IC50=concentration causing a half-maximal inhibition of control specific activity) were derived from dose response measurements with eight different concentrations (n=2; N=1-3).
Literature: N. Saldou et al., Comparison of recombinant human PDE4 isoforms: interaction with substrate and inhibitors, Cell. Signal. Vol. 10, No. 6, 427-440, 1998

T1 sequence (Q07343 whole entry): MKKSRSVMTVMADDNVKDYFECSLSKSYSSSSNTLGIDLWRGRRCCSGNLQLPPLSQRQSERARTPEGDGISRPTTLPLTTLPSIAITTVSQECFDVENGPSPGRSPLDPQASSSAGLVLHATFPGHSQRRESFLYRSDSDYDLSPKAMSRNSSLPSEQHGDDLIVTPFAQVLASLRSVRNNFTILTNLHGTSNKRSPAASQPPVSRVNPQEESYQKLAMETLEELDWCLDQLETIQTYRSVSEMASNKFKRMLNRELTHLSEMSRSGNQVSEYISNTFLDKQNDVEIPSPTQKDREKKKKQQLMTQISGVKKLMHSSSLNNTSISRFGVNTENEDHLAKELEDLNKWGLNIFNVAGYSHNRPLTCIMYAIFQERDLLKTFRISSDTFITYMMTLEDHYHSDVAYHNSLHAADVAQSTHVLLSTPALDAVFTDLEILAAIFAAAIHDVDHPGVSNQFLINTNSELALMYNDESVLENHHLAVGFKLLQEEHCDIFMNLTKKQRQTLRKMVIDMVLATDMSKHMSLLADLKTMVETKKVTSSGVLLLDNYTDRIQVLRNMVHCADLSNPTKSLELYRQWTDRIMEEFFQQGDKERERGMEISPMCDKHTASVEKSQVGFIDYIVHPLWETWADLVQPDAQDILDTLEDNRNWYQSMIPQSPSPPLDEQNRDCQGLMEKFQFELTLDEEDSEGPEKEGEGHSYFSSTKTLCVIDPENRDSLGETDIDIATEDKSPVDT

| SMILES | inhibition at 10 µM (human PDE4B1 [1]) | melting point | inhibition at 1 µM (human PDE4B1 [2]) |
| --- | --- | --- | --- |
| Cc1ccc(F)c(-c2cnc(-n3nc([S+](C)[O-])c4ccc(C(=O)N5CCOCC5)cc43)nc2)c1 (single isomer, unassigned) [Compound No. 65, (1-(5-(2-Fluoro-5-methylphenyl)pyrimidin-2-yl)-3-(methylsulfinyl)-1H-indazol-6-yl)(morpholino)methanone] | 100% |  |  |
| O=C(c1ccc2c(C3CC3)nn(-c3ncc(-c4ccccc4)cn3)c2c1)N1CCOCC1 [Compound No. 14, (3-Cyclopropyl-1-(5-phenylpyrimidin-2-yl)-1H-indazol-6-yl)(morpholino)-methanone] |  | 218 to 222 °C | 92% |
| O=C1CN(C(=O)c2ccc3c(C4CC4)nn(-c4ncc(-c5ccccc5)cn4)c3c2)CCN1 [Compound No. 15, 4-(3-Cyclopropyl-1-(5-phenylpyrimidin-2-yl)-1H-indazole-6-carbonyl)piperazin-2-one] |  | 175 to 179 °C | 96% |
| O=C1CN(C(=O)c2ccc3c(C4CC4)nn(-c4ncc(-c5ccccc5F)cn4)c3c2)CCN1 [Compound No. 16, 4-(3-Cyclopropyl-1-(5-(2-fluorophenyl)pyrimidin-2-yl)-1H-indazole-6-carbonyl)piperazin-2-one] |  | 252 to 255 °C | 99% |
| CN1CCN(C(=O)c2ccc3c(C4CC4)nn(-c4ncc(-c5ccccc5F)cn4)c3c2)CC1=O [Compound No. 17, 4-(3-Cyclopropyl-1-(5-(2-fluorophenyl)pyrimidin-2-yl)-1H-indazole-6-carbonyl)-1-methylpiperazin-2-one] |  | 217 to 221 °C | 95% |
| Cc1ccc(F)c(-c2cnc(-n3nc([S+](C)[O-])c4ccc(C(=O)N5CCOCC5)cc43)nc2)c1 (stereo not shown) [Compound No. 32, (1-(5-(2-Fluoro-5-methylphenyl)pyrimidin-2-yl)-3-(methylsulfinyl)-1H-indazol-6-yl)(morpholino)methanone] | 96% |  |  |
| Cc1ccc(F)c(-c2cnc(-n3nc(S(C)(=O)=O)c4ccc(C(=O)N5CCOCC5)cc43)nc2)c1 [Compound No. 33, (1-(5-(2-Fluoro-5-methylphenyl)pyrimidin-2-yl)-3-(methylsulfonyl)-1H-indazol-6-yl)(morpholino)methanone] | 102% |  |  |
| Cc1ccc(F)c(-c2cnc(-n3nc(C(C)O)c4ccc(C(=O)N5CCOCC5)cc43)nc2)c1 (stereo not shown) [Compound No. 34, (1-(5-(2-Fluoro-5-methylphenyl)pyrimidin-2-yl)-3-(1-hydroxyethyl)-1H-indazol-6-yl)(morpholino)methanone] | 107% |  |  |
| Cc1ccc(F)c(-c2cnc(-n3nc(C(C)O)c4ccc(C(=O)N(C)CCO)cc43)nc2)c1 (stereo not shown) [Compound No. 66, 1-(5-(2-Fluoro-5-methylphenyl)pyrimidin-2-yl)-3-(1-hydroxyethyl)-N-(2-hydroxyethyl)-N-methyl-1H-indazole-6-carboxamide] | 105% |  |  |
| Cc1ccc(F)c(-c2cnc(-n3nc(C(C)O)c4ccc(C(=O)N(C)CC(N)=O)cc43)nc2)c1 (stereo not shown) [Compound No. 67, N-(2-Amino-2-oxoethyl)-1-(5-(2-fluoro-5-methylphenyl)pyrimidin-2-yl)-3-(1-hydroxyethyl)-N-methyl-1H-indazole-6-carboxamide] | 90% |  |  |
| CCc1ccc(F)c(-c2cnc(-n3nc(C(C)O)c4ccc(C(=O)N(C)CC(N)=O)cc43)nc2)c1 (stereo not shown) [Compound No. 68, N-(2-Amino-2-oxoethyl)-1-(5-(5-ethyl-2-fluorophenyl)pyrimidin-2-yl)-3-(1-hydroxyethyl)-N-methyl-1H-indazole-6-carboxamide] | 106% |  |  |
| CCc1ccc(F)c(-c2cnc(-n3nc(C(C)O)c4ccc(C(=O)N5CCOCC5)cc43)nc2)c1 (stereo not shown) [Compound No. 69, (1-(5-(5-Ethyl-2-fluorophenyl)pyrimidin-2-yl)-3-(1-hydroxyethyl)-1H-indazol-6-yl)(morpholino)methanone] | 77% |  |  |
| Cc1ccnc(-c2cnc(-n3nc(C(C)O)c4ccc(C(=O)N5CCOCC5)cc43)nc2)c1 (stereo not shown) [Compound No. 70] | 105% |  |  |
| COc1ccnc(-c2cnc(-n3nc(C(C)O)c4ccc(C(=O)N5CCOCC5)cc43)nc2)c1 (stereo not shown) [Compound No. 71, (3-(1-Hydroxyethyl)-1-(5-(4-methoxypyridin-2-yl)pyrimidin-2-yl)-1H-indazol-6-yl)(morpholino)methanone] | 108% |  |  |
| CC(O)c1nn(-c2ncc(-c3cc(C4CC4)ccn3)cn2)c2cc(C(=O)N3CCOCC3)ccc12 (stereo not shown) [Compound No. 73, (1-(5-(4-Cyclopropylpyridin-2-yl)pyrimidin-2-yl)-3-(1-hydroxyethyl)-1H-indazol-6-yl)(morpholino)methanone] | 105% |  |  |
| CCOc1ccc(F)c(-c2cnc(-n3nc(C(C)O)c4ccc(C(=O)N5CCOCC5)cc43)nc2)c1 (stereo not shown) [Compound No. 74, (1-(5-(5-Ethoxy-2-fluorophenyl)pyrimidin-2-yl)-3-(1-hydroxyethyl)-1H-indazol-6-yl)(morpholino)methanone] | 102% |  |  |
| CC(O)c1nn(-c2ncc(-c3cccc(C4CC4)c3)cn2)c2cc(C(=O)N3CCOCC3)ccc12 (stereo not shown) [Compound No. 76, (1-(5-(3-Cyclopropylphenyl)pyrimidin-2-yl)-3-(1-hydroxyethyl)-1H-indazol-6-yl)(morpholino)methanone] | 102% |  |  |
| COCCCNC(=O)c1cc2c(cn1)c(C1CC1)nn2-c1ncc(-c2ccccc2F)cn1 [compound 43, 3-Cyclopropyl-1-(5-(2-fluorophenyl)pyrimidin-2-yl)-N-(3-methoxypropyl)-1H-pyrazolo[4,3-c]pyridine-6-carboxamide] |  |  | 44% |
| CC1COCCN1C(=O)c1cc2c(cn1)c(C1CC1)nn2-c1ncc(-c2ccccc2F)cn1 (stereo not shown) [compound 44, (3-Cyclopropyl-1-(5-(2-fluorophenyl)pyrimidin-2-yl)-1H-pyrazolo[4,3-c]pyridin-6-yl)(3-methylmorpholino)methanone] |  |  | 61% |
| O=C(NC1CCOCC1)c1cc2c(cn1)c(C1CC1)nn2-c1ncc(-c2ccccc2F)cn1 [compound 45, 3-Cyclopropyl-1-(5-(2-fluorophenyl)pyrimidin-2-yl)-N-(tetrahydro-2H-pyran-4-yl)-1H-pyrazolo[4,3-c]pyridine-6-carboxamide] |  |  | 27% |
| O=C(NCC1(O)CCC1)c1cc2c(cn1)c(C1CC1)nn2-c1ncc(-c2ccccc2F)cn1 [compound 46, 3-Cyclopropyl-1-(5-(2-fluorophenyl)pyrimidin-2-yl)-N-((1-hydroxycyclobutyl)methyl)-1H-pyrazolo[4,3-c]pyridine-6-carboxamide] |  |  | 31% |
| O=C(NCCn1cncn1)c1cc2c(cn1)c(C1CC1)nn2-c1ncc(-c2ccccc2F)cn1 [compound 47, N-(2-(1H-1,2,4-Triazol-1-yl)ethyl)-3-cyclopropyl-1-(5-(2-fluorophenyl)pyrimidin-2-yl)-1H-pyrazolo[4,3-c]pyridine-6-carboxamide] |  |  | 67% |
| COC[C@@H]1CCCN1C(=O)c1cc2c(cn1)c(C1CC1)nn2-c1ncc(-c2ccccc2F)cn1 [compound 48, (S)-(3-Cyclopropyl-1-(5-(2-fluorophenyl)pyrimidin-2-yl)-1H-pyrazolo[4,3-c]pyridin-6-yl)(2-(methoxymethyl)pyrrolidin-1-yl)methanone] |  |  | 43% |
| CC1COCC(C)N1C(=O)c1cc2c(cn1)c(C1CC1)nn2-c1ncc(-c2ccccc2F)cn1 (stereo not shown) [compound 49, (3-Cyclopropyl-1-(5-(2-fluorophenyl)pyrimidin-2-yl)-1H-pyrazolo[4,3-c]pyridin-6-yl)(3,5-dimethylmorpholino)methanone] |  |  | 54% |
